pIC50: −log10 of the molar value.
Biological target: T1, human Plk4 kinase domain (aa 2-275) (Homo sapiens, UniProt O00444)
T1 construct: purified 6×His-tagged human Plk4 kinase domain (aa 2-275); 6xHis; made in house; host or cells: E. coli
T1 sequence (O00444 2-275): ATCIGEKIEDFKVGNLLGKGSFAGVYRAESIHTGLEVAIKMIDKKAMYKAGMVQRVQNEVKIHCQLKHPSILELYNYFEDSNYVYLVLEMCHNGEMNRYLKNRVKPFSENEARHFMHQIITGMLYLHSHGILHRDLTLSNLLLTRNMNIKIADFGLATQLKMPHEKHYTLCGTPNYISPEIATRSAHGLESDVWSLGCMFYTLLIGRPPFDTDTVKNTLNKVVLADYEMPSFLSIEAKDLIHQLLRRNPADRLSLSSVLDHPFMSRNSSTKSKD
Test: Plk4 kinase assay (ADP-Glo)
Assay type: biochemical
Conditions: Table 1
Description: Kinase assays. […] The Plk4 concentration in the final reaction was 2.5-10 nM with a final pH of 8.0. […] Reactions were allowed to proceed for 4-16 hours at 25° C. Detection was performed using ADP-Glo reagent (Promega), following manufacturer's instructions. Luminescence was measured on an Infinite M1000 plate reader (Tecan). Data were fit using Prism (GraphPad) and Kis were calculated from IC50 data using the Cheng and Prusoff equation (37) or the Copeland formalism for tight-binding inhibitors (38).

| Structure (SMILES) | pIC50 |
| --- | --- |
| CCc1c(C)nc(Sc2ccc(NC(=O)C3CC3)cc2)nc1Nc1cc(C)[nH]n1 | < 6.00 |
| COc1c(Nc2cc(C)[nH]n2)nc(Sc2ccc(NC(=O)C3CC3)cc2)nc1N1CCN(C)CC1 | > 6.00 |
| Cc1cc(Nc2nc(Sc3ccc(NC(=O)C4CC4)cc3)nc(N3CCOCC3)c2C)n[nH]1 | > 6.00 |
| COc1c(C)nc(Sc2ccc(NC(=O)C3CC3)cc2)nc1Nc1cc(C)[nH]n1 | > 6.00 |
| Cc1cc(Nc2nc(Sc3ccc(NC(=O)C4CC4)cc3)nc3c2C(C)CC3)n[nH]1 (stereo not drawn) | > 6.00 |
| COc1c(Nc2cc(C)[nH]n2)nc(Sc2ccc(NC(=O)C3CCCC3)cc2)nc1N1CCN(C(C)=O)CC1 | > 6.00 |
| COCCN1CCN(c2nc(Sc3ccc(NC(=O)C4CCCC4)cc3)nc(Nc3cc(C)[nH]n3)c2OC)CC1 | > 6.00 |
| CCOc1c(Nc2cc(C)[nH]n2)nc(Sc2ccc(NC(=O)C3CC3)cc2)nc1N1CCOCC1 | > 6.00 |
| CCOc1c(Nc2cc(C)[nH]n2)nc(Sc2ccc(NC(=O)C3CC3)cc2)nc1N1CCCCC1 | 6.00 to 7.00 |
| COc1c(Nc2cc(C)[nH]n2)nc(Sc2ccc(NC(=O)C3CCCC3)cc2)nc1N1CCN(C)CC1 | > 6.00 |
| COc1c(Nc2cc(C)[nH]n2)nc(Sc2ccc(NC(=O)C3CCCC3)cc2)nc1N1CCNCC1 | > 6.00 |
| COc1c(Nc2cc(C)[nH]n2)nc(Sc2ccc(NC(=O)C3CCCC3)cc2)nc1N1CCN(CCN(C)C)CC1 | > 6.00 |
| CCOc1c(Nc2cc(C)[nH]n2)nc(Sc2ccc(NC(=O)C3CC3)cc2)nc1N1CCN(CCN(C)C)CC1 | 6.00 to 7.00 |
| CCOc1c(NCCOC)nc(Sc2ccc(NC(=O)C3CC3)cc2)nc1Nc1cc(C)[nH]n1 | 6.00 to 7.00 |
| CCOc1c(Nc2cc(C)[nH]n2)nc(Sc2ccc(NC(=O)C3CC3)cc2)nc1N1CCN(C(C)=O)CC1 | 6.00 to 7.00 |
| CCOc1c(Nc2cc(C)[nH]n2)nc(Sc2ccc(NC(=O)C3CC3)cc2)nc1N1CCN(CCOC)CC1 | 6.00 to 7.00 |
| CCOc1c(Nc2cc(C)[nH]n2)nc(Sc2ccc(NC(=O)C3CC3)cc2)nc1N(C)CCOC | 6.00 to 7.00 |
| COc1c(Nc2cc(C)[nH]n2)nc(Sc2ccc(NC(=O)C3CC3)cc2)nc1N1CCN(C2CCN(C)CC2)CC1 | > 6.00 |
| COc1c(Nc2cc(C)[nH]n2)nc(Sc2ccc(NC(=O)C3CC3)cc2)nc1N1CCN(C(=O)CN(C)C)CC1 | > 6.00 |
| COc1c(Nc2cc(C)[nH]n2)nc(Sc2ccc(NC(=O)C3CC3)cc2)nc1N1CCN(C(=O)CCN(C)C)CC1 | > 6.00 |
| COCC(=O)N1CCN(c2nc(Sc3ccc(NC(=O)C4CC4)cc3)nc(Nc3cc(C)[nH]n3)c2OC)CC1 | > 6.00 |
| COCCC(=O)N1CCN(c2nc(Sc3ccc(NC(=O)C4CC4)cc3)nc(Nc3cc(C)[nH]n3)c2OC)CC1 | > 6.00 |
| COc1c(Nc2cc(C)[nH]n2)nc(Sc2ccc(NC(=O)C3CC3)cc2)nc1N1CCN(CC2CC2)CC1 | > 6.00 |
| CNCCN1CCN(c2nc(Sc3ccc(NC(=O)C4CC4)cc3)nc(Nc3cc(C)[nH]n3)c2OC)CC1 | > 6.00 |
| COc1c(Nc2cc(C)[nH]n2)nc(Sc2ccc(NC(=O)C3CC3)cc2)nc1N1CCN(c2ccccc2)CC1 | 6.00 to 7.00 |

| Structure (SMILES) | pIC50 |
| --- | --- |
| CCOc1c(Nc2cc(C)[nH]n2)nc(Sc2ccc(NC(C)=O)cc2)nc1N1CCCCC1 | 6.00 to 7.00 |
| CCOc1c(Nc2cc(C)[nH]n2)nc(Sc2ccc(NC(C)=O)cc2)nc1N1CCNCC1 | 6.00 to 7.00 |
| CCOc1c(Nc2cc(C)[nH]n2)nc(Sc2ccc(NC(C)=O)cc2)nc1N1CCOCC1 | 6.00 to 7.00 |
| CCOc1c(Nc2cc(C)[nH]n2)nc(Sc2ccc(NC(C)=O)cc2)nc1N(CC)CC | 6.00 to 7.00 |
| CCOc1c(Nc2cc(C)[nH]n2)nc(Sc2ccc(NC(C)=O)cc2)nc1N(C)CC | 6.00 to 7.00 |
| CCOc1c(Nc2cc(C)[nH]n2)nc(Sc2ccc(NC(C)=O)cc2)nc1N1CCN(C(C)=O)CC1 | 6.00 to 7.00 |
| CCOc1c(Nc2cc(C)[nH]n2)nc(Sc2ccc(NC(C)=O)cc2)nc1N1CCN(CCOC)CC1 | 6.00 to 7.00 |
| CCOc1c(Nc2cc(C)[nH]n2)nc(Sc2ccc(NC(C)=O)cc2)nc1N1CCN(CCN(C)C)CC1 | 6.00 to 7.00 |
| CCOc1c(Nc2cc(C)[nH]n2)nc(Sc2ccc(NC(=O)C3CCCC3)cc2)nc1N1CCCCC1 | 6.00 to 7.00 |
| CCOc1c(Nc2cc(C)[nH]n2)nc(Sc2ccc(NC(=O)C3CCCC3)cc2)nc1N1CCNCC1 | 6.00 to 7.00 |
| CCOc1c(Nc2cc(C)[nH]n2)nc(Sc2ccc(NC(=O)C3CCCC3)cc2)nc1N1CCOCC1 | 6.00 to 7.00 |
| CCOc1c(Nc2cc(C)[nH]n2)nc(Sc2ccc(NC(=O)C3CCCC3)cc2)nc1N(CC)CC | < 6.00 |
| CCOc1c(Nc2cc(C)[nH]n2)nc(Sc2ccc(NC(=O)C3CCCC3)cc2)nc1N(C)CC | 6.00 to 7.00 |
| CCOc1c(Nc2cc(C)[nH]n2)nc(Sc2ccc(NC(=O)C3CCCC3)cc2)nc1N1CCN(C(C)=O)CC1 | 6.00 to 7.00 |
| CCOc1c(Nc2cc(C)[nH]n2)nc(Sc2ccc(NC(=O)C3CCCC3)cc2)nc1N1CCN(CCOC)CC1 | 6.00 to 7.00 |
| CCOc1c(Nc2cc(C)[nH]n2)nc(Sc2ccc(NC(=O)C3CCCC3)cc2)nc1N1CCN(CCN(C)C)CC1 | 6.00 to 7.00 |
| COc1c(Nc2cc(C)[nH]n2)nc(Sc2ccc(NC(=O)C3CC3)cc2)nc1NC1CCNCC1 | 6.00 to 7.00 |
| CCC1CCc2nc(Sc3ccc(NC(=O)C4CC4)cc3)nc(Nc3cc(C)[nH]n3)c21 (stereo not drawn) | > 6.00 |
| Cc1cc(Nc2nc(Sc3ccc(NC(=O)C4CCC4)cc3)nc(N3CCN(C)CC3)c2C)n[nH]1 | > 6.00 |
| CC(=O)Nc1ccc(Sc2nc(Nc3cc(C)[nH]n3)c(C)c(N3CCN(C)CC3)n2)cc1 | > 6.00 |
| CCOc1c(Nc2cc(C)[nH]n2)nc(Sc2ccc(NC(=O)C3CC3)cc2)nc1N1CCN(C(=O)COC)CC1 | 6.00 to 7.00 |
| CCOc1c(Nc2cc(C)[nH]n2)nc(Sc2ccc(NC(=O)C3CC3)cc2)nc1N1CCN(C(=O)CCN(C)C)CC1 | 6.00 to 7.00 |
| CCOc1c(Nc2cc(C)[nH]n2)nc(Sc2ccc(NC(=O)C3CC3)cc2)nc1N1CCN(C(=O)CCOC)CC1 | 6.00 to 7.00 |
| CCOc1c(Nc2cc(C)[nH]n2)nc(Sc2ccc(NC(=O)C3CC3)cc2)nc1N1CCN(C2CCN(C)CC2)CC1 | 6.00 to 7.00 |
| CCOc1c(Nc2cc(C)[nH]n2)nc(Sc2ccc(NC(=O)C3CC3)cc2)nc1N1CCN(CC2CC2)CC1 | 6.00 to 7.00 |

| Structure (SMILES) | pIC50 |
| --- | --- |
| CCOc1c(Nc2cc(C)[nH]n2)nc(Sc2ccc(NC(=O)C3CCCC3)cc2)nc1N1CCN(C(=O)CN(C)C)CC1 | 6.00 to 7.00 |
| CCOc1c(Nc2cc(C)[nH]n2)nc(Sc2ccc(NC(=O)C3CCCC3)cc2)nc1N1CCN(C(=O)COC)CC1 | 6.00 to 7.00 |
| CCOc1c(Nc2cc(C)[nH]n2)nc(Sc2ccc(NC(=O)C3CCCC3)cc2)nc1N1CCN(C(=O)CCOC)CC1 | 6.00 to 7.00 |
| CCOc1c(Nc2cc(C)[nH]n2)nc(Sc2ccc(NC(=O)C3CCCC3)cc2)nc1N1CCN(C2CCN(C)CC2)CC1 | 6.00 to 7.00 |
| CCOc1c(Nc2cc(C)[nH]n2)nc(Sc2ccc(NC(=O)C3CCCC3)cc2)nc1N1CCN(CC2CC2)CC1 | 6.00 to 7.00 |
| CCN(CC)c1nc(Sc2ccc(S(=O)(=O)Cc3ccccc3)cc2)nc(Nc2cc(C)[nH]n2)c1OC | > 6.00 |
| CCN(CC)c1nc(Sc2ccc(S(=O)(=O)CC)cc2)nc(Nc2cc(C)[nH]n2)c1OC | > 6.00 |
| CCOc1c(Nc2cc(C)[nH]n2)nc(Sc2ccc(S(=O)(=O)Cc3ccccc3)cc2)nc1N1CCNCC1 | < 6.00 |
| CCOc1c(Nc2cc(C)[nH]n2)nc(Sc2ccc(S(=O)(=O)CC)cc2)nc1N1CCNCC1 | > 6.00 |
| COc1c(Nc2cc(C)[nH]n2)nc(Sc2ccc(S(=O)(=O)Cc3ccc(F)cc3F)cc2)nc1N1CCN(CCN(C)C)CC1 | > 6.00 |
| COc1c(Nc2cc(C)[nH]n2)nc(Sc2ccc(S(=O)(=O)Cc3ccccc3F)cc2)nc1N1CCN(CCN(C)C)CC1 | > 6.00 |
| COc1c(Nc2cc(C)[nH]n2)nc(Sc2ccc(S(=O)(=O)Cc3ccccc3)cc2)nc1N1CCN(CCN(C)c2ccccc2)CC1 | > 6.00 |
| CCCOc1c(Nc2cc(C)[nH]n2)nc(Sc2ccc(S(=O)(=O)Cc3ccccc3)cc2)nc1N1CCN(CCN(C)C)CC1 | > 6.00 |
| Cc1cc(Nc2nc(Sc3ccc(S(=O)(=O)Cc4ccccc4)cc3)nc(N3CCN(CCN(C)C)CC3)c2OC(C)C)n[nH]1 | > 6.00 |
| COc1c(Nc2cc(C)[nH]n2)nc(Sc2ccc(S(=O)(=O)Cc3cccc(O)c3)cc2)nc1N1CCN(CCN(C)C)CC1 | > 6.00 |
| COc1c(Nc2cc(C)[nH]n2)nc(Sc2ccc(S(=O)(=O)Cc3cccc(OCc4ccccc4)c3)cc2)nc1N1CCN(CCN(C)C)CC1 | > 6.00 |
| COc1c(Nc2cc(C)[nH]n2)nc(Nc2ccc(S(=O)(=O)Cc3ccccc3)cc2)nc1N1CCN(CCN(C)C)CC1 | > 6.00 |
| CCOc1c(Nc2cc(C)[nH]n2)nc(Sc2ccc(S(=O)(=O)Cc3ccccc3)cc2)nc1N1CCN(CCN2C3CCCC2CC3)CC1 | > 6.00 |
| CCOc1c(Nc2cc(C)[nH]n2)nc(Sc2ccc(S(=O)(=O)CC)cc2)nc1N1CCC(CCN(C)C)CC1 | > 6.00 |
| CCOc1c(Nc2cc(C)[nH]n2)nc(Sc2ccc(S(=O)(=O)Cc3cc(F)ccc3F)cc2)nc1N1CCN(CCN(C)C)CC1 | > 6.00 |
| COc1c(Nc2cc(C)[nH]n2)nc(Sc2ccc(S(=O)(=O)Cc3cccc(-c4ccccc4)c3)cc2)nc1N1CCN(CCN(C)C)CC1 | > 6.00 |
| COc1c(Nc2cc(C)[nH]n2)nc(Sc2ccc(S(=O)(=O)Cc3cccc(C(C)=O)c3)cc2)nc1N1CCN(CCN(C)C)CC1 | > 6.00 |
| COc1c(Nc2cc(C)[nH]n2)nc(Sc2ccc(S(=O)(=O)Cc3cccc([N+](=O)[O-])c3)cc2)nc1N1CCOCC1 | > 6.00 |
| COc1c(Nc2cc(C)[nH]n2)nc(Sc2ccc(S(=O)(=O)Cc3ccccc3)cc2)nc1N1CCN(Cc2ccccc2)CC1 | > 6.00 |
| COc1c(Nc2cc(C)[nH]n2)nc(Sc2ccc(S(=O)(=O)Cc3ccccc3)cc2F)nc1N1CCN(CCN(C)C)CC1 | > 6.00 |
